# Experimental data as given in patent US7674596B2 (priority 2005, dated 2010).
# Entries after “also recorded” stand apart in the source; their conditions may differ.
# Columns and labels:
# Format in all cases: cell-based
# [1] = biological target: T1, T-type α1H channel (Homo sapiens, UniProt O95180); assay: Fluo-3 fluorescent calcium imaging (cooled CCD) in clone #30 cells (HEK293-TChH-IRK2.1); settings: for increase of intracellular calcium signal (fluorescent image) upon KCl depolarization: 60 mM KCl
# T1 construct: expressed in transfected cells; clone #30, KCTC 10780BP
# T1 sequence (O95180 whole entry): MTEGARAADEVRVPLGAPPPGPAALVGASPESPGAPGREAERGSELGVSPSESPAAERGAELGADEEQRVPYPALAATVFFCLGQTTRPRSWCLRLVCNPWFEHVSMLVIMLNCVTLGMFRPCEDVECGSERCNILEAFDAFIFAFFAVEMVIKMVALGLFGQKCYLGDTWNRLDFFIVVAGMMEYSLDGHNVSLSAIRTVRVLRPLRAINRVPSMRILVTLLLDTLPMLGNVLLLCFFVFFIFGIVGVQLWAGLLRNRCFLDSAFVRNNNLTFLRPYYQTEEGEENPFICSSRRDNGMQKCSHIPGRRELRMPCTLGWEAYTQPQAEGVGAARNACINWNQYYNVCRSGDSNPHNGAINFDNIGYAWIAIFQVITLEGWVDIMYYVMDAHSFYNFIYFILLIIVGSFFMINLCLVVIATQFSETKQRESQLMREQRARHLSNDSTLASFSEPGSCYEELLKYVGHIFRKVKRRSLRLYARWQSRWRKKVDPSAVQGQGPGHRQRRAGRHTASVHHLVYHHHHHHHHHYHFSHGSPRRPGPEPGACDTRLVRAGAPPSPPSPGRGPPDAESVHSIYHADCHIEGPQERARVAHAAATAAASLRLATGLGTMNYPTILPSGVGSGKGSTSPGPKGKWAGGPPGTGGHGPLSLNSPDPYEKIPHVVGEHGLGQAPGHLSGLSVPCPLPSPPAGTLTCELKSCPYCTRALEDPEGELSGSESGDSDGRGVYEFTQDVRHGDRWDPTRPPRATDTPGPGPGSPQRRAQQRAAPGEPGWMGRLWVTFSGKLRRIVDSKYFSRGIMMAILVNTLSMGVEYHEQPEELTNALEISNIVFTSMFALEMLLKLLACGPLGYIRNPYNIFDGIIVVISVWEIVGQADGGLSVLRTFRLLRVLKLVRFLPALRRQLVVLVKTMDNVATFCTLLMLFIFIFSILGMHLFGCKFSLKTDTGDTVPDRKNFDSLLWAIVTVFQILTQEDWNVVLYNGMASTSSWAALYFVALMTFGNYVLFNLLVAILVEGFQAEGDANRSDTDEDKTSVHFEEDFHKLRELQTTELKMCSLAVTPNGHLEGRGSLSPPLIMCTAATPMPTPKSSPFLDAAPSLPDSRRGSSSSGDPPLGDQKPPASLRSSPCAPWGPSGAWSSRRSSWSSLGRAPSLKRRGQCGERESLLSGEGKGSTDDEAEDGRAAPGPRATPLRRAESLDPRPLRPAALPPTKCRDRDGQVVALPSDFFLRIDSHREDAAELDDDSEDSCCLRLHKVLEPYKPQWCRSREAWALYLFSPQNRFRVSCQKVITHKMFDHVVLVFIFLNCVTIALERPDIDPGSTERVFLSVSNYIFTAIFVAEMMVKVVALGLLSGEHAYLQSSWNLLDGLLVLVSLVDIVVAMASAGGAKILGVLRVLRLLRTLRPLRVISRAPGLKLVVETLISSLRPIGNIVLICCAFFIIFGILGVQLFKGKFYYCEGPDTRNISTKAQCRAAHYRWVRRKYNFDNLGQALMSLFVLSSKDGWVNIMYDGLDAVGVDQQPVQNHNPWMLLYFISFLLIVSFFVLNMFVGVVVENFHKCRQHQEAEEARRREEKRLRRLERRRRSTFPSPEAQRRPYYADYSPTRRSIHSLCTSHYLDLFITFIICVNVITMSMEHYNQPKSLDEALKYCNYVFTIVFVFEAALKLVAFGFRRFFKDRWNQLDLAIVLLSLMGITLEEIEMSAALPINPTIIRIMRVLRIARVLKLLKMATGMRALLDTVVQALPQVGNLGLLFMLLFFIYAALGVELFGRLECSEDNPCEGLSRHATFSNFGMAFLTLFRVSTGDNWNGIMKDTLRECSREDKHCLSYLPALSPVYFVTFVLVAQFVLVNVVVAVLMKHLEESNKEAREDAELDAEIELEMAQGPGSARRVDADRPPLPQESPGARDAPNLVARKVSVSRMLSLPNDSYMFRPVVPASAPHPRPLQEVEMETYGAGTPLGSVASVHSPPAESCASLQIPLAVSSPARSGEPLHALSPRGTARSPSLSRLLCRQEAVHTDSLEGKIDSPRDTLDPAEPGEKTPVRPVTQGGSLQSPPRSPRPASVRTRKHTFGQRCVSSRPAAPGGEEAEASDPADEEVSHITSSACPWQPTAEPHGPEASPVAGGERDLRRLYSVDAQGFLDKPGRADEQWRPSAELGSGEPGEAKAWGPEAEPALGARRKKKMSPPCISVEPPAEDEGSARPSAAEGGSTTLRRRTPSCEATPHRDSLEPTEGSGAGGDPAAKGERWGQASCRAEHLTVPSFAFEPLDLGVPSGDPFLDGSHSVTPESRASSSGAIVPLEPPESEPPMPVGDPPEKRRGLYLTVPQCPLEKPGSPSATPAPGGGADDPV
# Description: (§1) Intracellular calcium concentrations were measured by the ratio fluorescence system (Ratiomaster, Photon Technology International, USA) installed on a fluorescent microscope (Nikon TE2000, Japan) as well as CoolSNAP CCD imaging system (Loafer Scientific, USA). Particularly, Fura-2/AM or Fluo-3 (Molecular Probes, USA) was added up to 5 μM to cells cultured on a cover slip, followed by loading at room temperature for 30-60 minutes with the light blocked. After the loading, the cells were washed twice with an extracellular flushing medium, and then the cover slip, on which the cells were stuck, was put on a perfusion chamber on the microscope. In the case of Fura-2/AM, the changes in the intracellular calcium (Ca^2+) concentration were measured using a photomultiplier (PM) tube in the ratio of fluorescence (F340/F380 t) emitted at 510 nm when 340 nm and 380 nm were used for excitation respectively. When Fluo-3 was used, fluorescent ratios were not measured but the fluorescent image emitted at 525 nm was recorded and captured by a cooled CCD, which was then analyzed by the Metaimage 6.1 program (Imaging Corporation, USA).
# To measure fluorescent calcium image, Fluo-3 was loaded to clone #30 cells.
# [2] = biological target: T1, T-type α1H channel; assay: Fura-2/AM ratio fluorescence (F340/F380) calcium assay in single cell of clone #30 (HEK293-TChH-IRK2.1) depolarized by KCl; settings: depolarization by 60 mM KCl, pre-treatment with mibefradil (3 μM elsewhere in the source)
# Description: as §1
# [3] = biological target: T2, human potassium channel Kir2.1 (Homo sapiens, UniProt P63252); assay: Gramicidin-perforated current-clamp measurement of membrane potential of clone #30; settings: 100 μM barium
# T2 construct: expressed in transfected cells; host or cells: HEK293 stably expressing human T-type α1H; clone #30 (HEK293-TChH-IRK2.1, KCTC 10780BP)
# T2 sequence (P63252 1-427): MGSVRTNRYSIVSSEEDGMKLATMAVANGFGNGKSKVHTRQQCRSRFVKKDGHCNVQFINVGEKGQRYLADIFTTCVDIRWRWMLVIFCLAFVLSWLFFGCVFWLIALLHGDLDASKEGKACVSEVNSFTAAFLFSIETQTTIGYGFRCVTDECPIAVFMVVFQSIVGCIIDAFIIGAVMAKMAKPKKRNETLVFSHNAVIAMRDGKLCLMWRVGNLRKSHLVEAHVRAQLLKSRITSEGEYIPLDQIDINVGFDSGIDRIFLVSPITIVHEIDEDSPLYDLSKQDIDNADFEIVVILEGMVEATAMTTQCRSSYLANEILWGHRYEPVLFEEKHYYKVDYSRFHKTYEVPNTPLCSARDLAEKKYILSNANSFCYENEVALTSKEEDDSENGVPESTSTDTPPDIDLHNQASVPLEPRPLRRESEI
# Description: (§2) The procedures and conditions of the experiment were as follows. The T-type calcium current and inwardly rectifying potassium current (referred as “IRK current” hereinafter) were recorded by the whole-cell ruptured patch-clamp method (Hamil et al., Pflugers Arch., 391:85-100, 198; Jeong and Ikeda, Neuron, 21:1201-1212, 1998), a voltage clamp technique, to confirm which clone could best express the human T-type α1H channel and human potassium channel Kir2.1. In the meantime, the resting membrane potential of the clones that were confirmed by the measurement of calcium and potassium currents was monitored by the gramicidin-perforated current-clamp method (Akaike, Prog. Biophys. Mol. Biol., 65:251-264, 1997).
# (§3) The patch electrode used in the measurement above was prepared with a borosilicate glass tube (Corning, USA) by a P-97 flaming brown micro-pipette puller (Sutter Instrument, USA). […] The cell capacitance and series resistance were adjusted to more than 80% by using Axopatch-1D (Axon Instruments, USA) or EPC-10 amplifier (HEKA, Germany). S4 (prepared by Dr. Stephen R. Ikeda, USA) using ITC18 (Instrutech, USA) or Pulse (HEKA, Germany) was used for the generation and data collection of the voltage-stimulating protocol. […] The results were recorded in a computer. […]
# (§4) The T-type α1H channel current, activated at −50 mV and showing maximum activity at −30 mV, was recorded as well. […]
# [4] = biological target: T2, human potassium channel Kir2.1; assay: Whole-cell ruptured patch-clamp recording of inwardly rectifying potassium (IRK) current in clone #30; parameters: dose or concentration left out as unconfirmed; settings: Ba^2+, voltage clamp
# Description: as §2, §3, §4
structure (smiles),measurement,setting,value
COCC(=O)O[C@]1(CCN(C)CCCc2nc3ccccc3[nH]2)CCc2cc(F)ccc2[C@@H]1C(C)C [mibefradil],increase of intracellular calcium signal (fluorescent image) upon KCl depolarization,[1]; pre-treatment with mibefradil (3 μM elsewhere in the source),completely inhibited; also recorded: completely blocked
same,intracellular calcium level at non-depolarized resting phase (number of red cells),"[1]; no KCl, mibefradil (3 μM elsewhere in the source)",reduced remarkably; also recorded: remarkably reduced
same,increase in intracellular calcium (F340/F380 ratio) by influx through T-type α1H channels,[2],completely blocked; also recorded: completely inhibited
"[Ba+2] [Ba^2+, barium]",membrane potential response,[3],Ca^2+ spikes or action potentials were induced with depolarization
same,IRK current,[4],blocked
"[Ni+2] [Ni^2+, nickel (Ni^2+)]",increase of intracellular calcium signal (fluorescent image) upon KCl depolarization,[1]; pre-treatment with 100 μM nickel,completely inhibited
same,increase of intracellular calcium signal (fluorescent image) upon KCl depolarization,[1]; pre-treatment with 100 mM Ni^2+,completely inhibited
